According to ChEMBL document CHEMBL1201862, “PubChem BioAssay data set” (2004):
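Dose response: 5 concentrations. Exposure: 48 h. Format: 96-well plates. Endpoint: linear interpolation; highest concentration if not reached. GI50 is the concentration that inhibits growth by half.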 Active and inactive are the calls of the source. No stated cut-off is given here; in the data, active = GI50 up to about 1.1 µM and inactive = higher.

Assays:
Test in all cases: growth of human tumour cells (NCI), 48 h
[1] = system: BT-549
[2] = system: COLO 205
[3] = system: DU-145
[4] = system: HCT-116
[5] = system: Hs-578T
[6] = system: K562
[7] = system: KM12
[8] = system: M14
[9] = system: MOLT-4
[10] = system: OVCAR-5
[11] = system: OVCAR-8
[12] = system: PC-3
[13] = system: RXF 393
[14] = system: SF-539
[15] = system: SK-MEL-28
[16] = system: SK-MEL-2
[17] = system: SN12C
[18] = system: SNB-75
[19] = system: SW-620
[20] = system: TK-10

Measured: GI50

Cc1ccc2ccccc2c1CSc1nc(N)nc2c1ncn2CC(C)C
inactive: [1] 39.4 µM | [2] 6.4 µM | [3] 82.4 µM | [4] 9.82 µM | [5] > 35.2 µM | [6] 6.41 µM | [7] 15.2 µM | [8] 17.3 µM | [9] 4.73 µM | [10] 96.2 µM | [11] 40.4 µM | [12] 13.9 µM | [13] 10.7 µM | [14] 7.78 µM | [15] 55.8 µM | [16] 17 µM | [17] 40 µM | [18] 43.3 µM | [19] 24.7 µM | [20] 29.6 µM

Cc1noc(NC(=O)Nc2ccccc2F)c1C#N
inactive: [1] > 100 µM | [2] > 100 µM | [3] 49.8 µM | [4] 14.4 µM | [5] > 34.4 µM | [6] > 45.8 µM | [7] > 100 µM | [8] > 24.4 µM | [9] 48.9 µM | [10] > 28.4 µM | [11] > 90.8 µM | [12] > 21.5 µM | [13] > 66.8 µM | [14] > 100 µM | [15] > 100 µM | [16] > 39.8 µM | [17] 16.1 µM | [18] 97.1 µM | [19] > 100 µM | [20] > 27.2 µM

CSc1c(C#N)c(=O)n(N)c2c1c(C)nn2-c1ccccc1
inactive: [1] 30.1 µM | [2] 17.3 µM | [3] 37.2 µM | [4] 23.7 µM | [5] 51.4 µM | [6] 31 µM | [7] 34.2 µM | [8] 35.7 µM | [9] 27.5 µM | [10] 24.1 µM | [11] 20.8 µM | [12] 19.7 µM | [13] 18.7 µM | [14] 19 µM | [15] 35.4 µM | [16] 19.3 µM | [17] 34.4 µM | [18] 28.2 µM | [19] 35.9 µM | [20] 30.1 µM

O=C(O)CCC[C@]1(O)O[C@@]2(CCCC2=O)[C@]2(O)CCC[C@@]21O
inactive: [1] > 100 µM | [2] > 100 µM | [3] > 100 µM | [4] > 100 µM | [5] > 100 µM | [6] > 100 µM | [7] > 100 µM | [8] > 100 µM | [9] > 100 µM | [10] > 100 µM | [11] > 100 µM | [12] > 100 µM | [13] > 100 µM | [14] > 100 µM | [15] > 100 µM | [16] > 100 µM | [17] > 100 µM | [18] > 100 µM | [19] > 100 µM | [20] > 100 µM

CC(C)(CCCCC(C)(C)NCC1COc2ccccc2O1)NCC1COc2ccccc2O1 (stereo not given)
inactive: [1] > 10 µM | [2] 2.12 µM | [3] > 10 µM | [4] 7.91 µM | [5] 5.66 µM | [6] > 10 µM | [7] > 10 µM | [8] 1.76 µM | [9] > 10 µM | [10] > 10 µM | [11] > 10 µM | [12] > 10 µM | [13] 3.18 µM | [14] 1.85 µM | [15] 2.16 µM | [16] 3.29 µM | [17] > 10 µM | [18] 9.38 µM | [19] 9.75 µM | [20] > 10 µM

COc1ccc(/C=C(\C(=C/c2ccc(OC)cc2)[N+](=O)[O-])[N+](=O)[O-])cc1
inactive: [1] 6.1 µM | [2] 3.68 µM | [3] 12.1 µM | [4] 10.2 µM | [5] 4.18 µM | [6] 3.92 µM | [7] 14.6 µM | [8] 4.11 µM | [9] 2.96 µM | [10] 10.3 µM | [11] 2.03 µM | [12] 5.85 µM | [13] 1.54 µM | [14] 2.24 µM | [15] 2.31 µM | [16] 11.6 µM | [17] 2.88 µM | [18] 26.1 µM | [19] 2.52 µM | [20] 5.71 µM

CN(c1ccc(Cl)cc1)S(=O)(=O)c1ccccc1
inactive: [1] 32 µM | [2] 47.2 µM | [3] > 100 µM | [4] 37.5 µM | [5] > 100 µM | [6] 36.8 µM | [7] 40.8 µM | [8] 45.1 µM | [9] 28 µM | [10] 52.8 µM | [11] 44.6 µM | [12] 21.6 µM | [13] 11.3 µM | [14] 43 µM | [15] 54.8 µM | [16] > 100 µM | [17] > 100 µM | [18] 61.4 µM | [19] 85.5 µM | [20] 65.6 µM

COc1ccc2c(c1)nc1n2C(c2c(F)cccc2F)SC1 (stereo not given)
inactive: [1] 59 µM | [2] 40.6 µM | [3] > 100 µM | [4] 31.5 µM | [5] 35.2 µM | [6] 43.8 µM | [7] 25 µM | [8] 56.9 µM | [9] 35.2 µM | [10] > 100 µM | [11] 83.8 µM | [12] 27.8 µM | [13] 53.7 µM | [14] 47.3 µM | [15] > 100 µM | [16] 31.6 µM | [17] > 100 µM | [18] 39.3 µM | [19] 60.5 µM | [20] 94.6 µM
